Assay results taken from US6914045B2, “Glycopeptide antibiotics” (Wyeth Holdings Corporation, priority 2001, dated 2005).

How the values were obtained:
Assay in all cases: in vitro antibacterial evaluation, MIC by broth dilution
Type in all cases: cell-based
Settings in all cases: broth dilution, 18 hours at 35° C.
[1] = tested on: Streptococcus sp.
Description: (§1) Methods for in vitro Antibacterial Evaluation (Table 1)
(§2) The minimum inhibitory concentration (MIC), the lowest concentration of the antibiotic which inhibits growth of the test organism, is determined by the broth dilution method using Muller-Hinton II […] (Baltimore Biological Laboratories) following the recommendations of the National Committee for Clinical Laboratory Standards [Methods for dilution antimicrobial susceptibility tests for bacteria that grow aerobically, approved standard M7-A2, National Committee for Clinical Laboratory Standards, Villanova, Pa.].
(§3) An inoculum level of 5×10^5 CFU/mL, and a range of antibiotic concentrations (64-0.06 μg/mL) is used. […] The test organisms include a spectrum of Gram-positive bacteria comprised of Staphylococcus sp., Streptococcus sp. and Enterococcus sp. These organisms include recent clinical isolates that are resistant to methicillin, penicillin and/or vancomycin.

[2] = tested on: Staphylococcus sp.
Description: as §1, §2, §3

[3] = tested on: Enterococcus sp.
Description: as §1, §2, §3

[4] = tested on: Escherichia coli
Procedure, shortened: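 MIC is the lowest antibiotic concentration (tested 64-0.06 μg/mL) preventing growth of a 5×10^5 CFU/mL inoculum. Determined by broth dilution in Mueller-Hinton II medium following NCCLS standard M7-A2.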

CC(c1ccccc1)C1NC(=O)CNC(=O)C(CO)NC(=O)C(C(O)C2CNC(=N)N2C2OC(CO)C(O)C(O)C2O)NC(=O)C(C(O)C2CNC(=N)N2)NC(=O)C(Cc2ccc3oc(-c4ccc(Br)cc4)nc3c2)NC1=O (stereo not drawn) [Example 27, Cyclo[3-[2-(4-bromophenyl)-1,3-benzoxazol-5-yl]alanyl-3-(2-iminoimidazolidin-4-yl)seryl-3-(3-hexopyranosyl-2-iminoimidazolidin-4-yl)serylserylglycyl-β-methylphenylalanyl]]
32 µg/mL: MIC Streptococcus pneumoniae (GC 1894) ([1]; strain GC 1894) | MIC Streptococcus agalactiae (GC 4564) ([1]; strain GC 4564) | MIC Enterococcus faecalis (ATCC 29212) ([3]; strain ATCC 29212) | MIC Enterococcus faecalis (GC 2242) ([3]; strain GC 2242) | MIC Enterococcus faecium (GC 2243) ([3]; strain GC 2243) | MIC Enterococcus faecalis (GC 2691) ([3]; strain GC 2691) | MIC Enterococcus faecalis (GC 3059) ([3]; strain GC 3059) | MIC Enterococcus faecalis (GC 4554) ([3]; strain GC 4554) | MIC Enterococcus faecalis (GC 6189) ([3]; strain GC 6189) | MIC Escherichia coli (ATCC 25922) ([4]; strain ATCC 25922) | MIC Escherichia coli (GC 4559) ([4]; strain GC 4559)
16 µg/mL: MIC Streptococcus pneumoniae (ATCC 6301) ([1]; strain ATCC 6301) | MIC Streptococcus pneumoniae (GC 4565) ([1]; strain GC 4565) | MIC Staphylococcus aureus (GC 1131) ([2]; strain GC 1131) | MIC Staphylococcus aureus (GC 3051) ([2]; strain GC 3051) | MIC Staphylococcus aureus (GC 4541) ([2]; strain GC 4541) | MIC Enterococcus faecalis (GC 4553) ([3]; strain GC 4553) | MIC Enterococcus avium (GC 4558) ([3]; strain GC 4558)
64 µg/mL: MIC Enterococcus faecalis (GC 4552) ([3]; strain GC 4552) | MIC Enterococcus faecium (GC 4556) ([3]; strain GC 4556)
4 µg/mL: MIC Staphylococcus haemolyticus (GC 4546) ([2]; strain GC 4546) | MIC Coagulase Negative Staphylococcus (GC 6257) ([2]; strain GC 6257)
8 µg/mL: MIC Streptococcus pyogenes (GC 4563) ([1]; strain GC 4563) | MIC Staphylococcus aureus (ATCC 29213) ([2]; strain ATCC 29213) | MIC Staphylococcus aureus (GC 3053) ([2]; strain GC 3053) | MIC Staphylococcus aureus (GC 4542) ([2]; strain GC 4542) | MIC Staphylococcus aureus-SMITH (GC 4543) ([2]; strain GC 4543) | MIC Staphylococcus aureus (GC 4544) ([2]; strain GC 4544) | MIC Staphylococcus aureus (GC 4545) ([2]; strain GC 4545) | MIC Coagulase Negative Staphylococcus (GC 4547) ([2]; strain GC 4547) | MIC Coagulase Negative Staphylococcus (GC 4548) ([2]; strain GC 4548) | MIC Coagulase Negative Staphylococcus (GC 4549) ([2]; strain GC 4549) | MIC Coagulase Negative Staphylococcus (GC 4551) ([2]; strain GC 4551) | MIC Enterococcus faecium (GC 4557) ([3]; strain GC 4557) | MIC Escherichia coli (GC 4560) ([4]; strain GC 4560)
